Reference: US12612362B2 (SHANXI MEDICAL UNIVERSITY, priority 2021, dated 2026)
“Also recorded” adds a separate entry of the source.

Key:
[1] = system: pancreas islets of the rats; experiment: Insulin secretion of isolated rat pancreas islets (insulin radioimmunoassay); conditions: for effect of promoting insulin secretion: 30 min incubation, n=7
[2] = system: C57BL/6 mice; experiment: Oral glucose tolerance test (OGTT); format: in vivo; conditions: n=7

**Q.** Which “effect of promoting insulin secretion” value ([1]; 2.8 mmol/L glucose (2.8G), 10 μM) does the source give for `COc1ccc(C[C@H]2NC[C@H](O)[C@H]2OC(C)=O)cc1` [anisomycin, (2R,3S,4S)-2-[(4-methoxyphenyl)methyl]-3,4-pyrrolidinediol 3-acetate methyl ester] here?
**A.** The value was “does not have the effect of promoting insulin secretion; also recorded: does not have the effect of promoting secretion of insulin”.

**Q.** What about the “effect of promoting insulin secretion” value ([1]; 11.1 mmol/L glucose (11.1G), 1 μM) of the same compound?
**A.** The value was “has the significant effect of promoting insulin secretion”.

**Q.** What about the “effect of promoting insulin secretion” value ([1]; 11.1 mmol/L glucose (11.1G), 10 μM) of the same compound?
**A.** Its value is “has the significant effect of promoting insulin secretion; also recorded: has the significant effect of promoting secretion of insulin”.

**Q.** And the “effect of promoting insulin secretion” value ([1]; 16.7 mmol/L glucose (16.7G), 10 μM)?
**A.** Its value is “can still promote secretion of insulin with significant difference”.

**Q.** What about the “concentration dependence of promoting insulin secretion” value ([1]; 11.1G, 0.1 μM, 1 μM and 10 μM) of the same compound?
**A.** The value was “concentration-dependent effect of promoting insulin secretion”.

**Q.** And the “tolerance to glucose load (blood glucose curve and AUC in OGTT)” value ([2]; 5 mg/kg intraperitoneally, vs control group)?
**A.** Its value is “improved to different extents”.

**Q.** What about the “glucose reducing effect (blood glucose curve and AUC in OGTT)” value ([2]; 15 mg/kg intraperitoneally, vs control group and 5 mg/kg) of the same compound?
**A.** The value was “more obvious than 5 mg/kg anisomycin in glucose reducing effect”.
